Test results as given in ChEMBL document CHEMBL3864144, “Cochlearoids F-K: Phenolic meroterpenoids from the fungus Ganoderma cochlear and their renoprotective activity” (Bioorg Med Chem Lett, 2016).
The source made the active and inactive calls. The rule behind the calls is not given here.

Columns and labels:
[1] = Cytotoxicity against human HKC8 cells assessed as decrease in cell viability at 20 uM after 24 hrs by MTT assay; format: toxicity, cell-based; settings: hkc8, 24 h
[2] = Cytotoxicity against human HKC8 cells assessed as decrease in cell viability at 2.5 uM after 24 hrs by MTT assay; format: toxicity, cell-based; settings: hkc8, 24 h
HKC8 = test: Renoprotective activity in human HKC8 cells assessed as inhibition of TGF-beta1-induced fibronectin production preincubated for 1 hr followed by TGF-beta1 induction measured after 24 hrs by solid-phase sandwich ELISA; format: functional, cell-based
[3] = Cytotoxicity against human HKC8 cells assessed as decrease in cell viability at 5 uM after 24 hrs by MTT assay; format: toxicity, cell-based; settings: hkc8, 24 h
[4] = Cytotoxicity against human HKC8 cells assessed as decrease in cell viability at 10 uM after 24 hrs by MTT assay; format: toxicity, cell-based; settings: hkc8, 24 h

| Compound | Activity [1] | Activity [2] | inhibition (HKC8) | Activity [3] | Activity [4] |
| --- | --- | --- | --- | --- | --- |
| CC(C)=CCC/C(C)=C/CC/C(=C/Cc1cc(O)cc2c1oc(=O)c1c(O)ccc(O)c12)C(=O)O | Toxic | Non-Toxic | Active |  |  |
| CC(C)=CCC/C(C)=C/CC/C(=C/Cc1cc(O)cc2c(C(=O)c3cc(O)ccc3O)c(CC/C=C(\C)CCC=C(C)C)c(=O)oc12)CO | Toxic |  | Active | Non-Toxic |  |
| CC(C)=CCC/C(C)=C/CC/C(=C/Cc1cc2oc(=O)c3c(O)ccc(O)c3c2cc1O)CO | Toxic | Non-Toxic |  |  |  |
| CC(C)=CCC/C(C)=C/CC/C(=C/Cc1cc(O)cc2c1oc(=O)c1c(O)ccc(O)c12)CO | Toxic |  | Active |  | Non-Toxic |
| CC(C)=CCC/C(=C/Cc1cc2oc(=O)c3c(O)ccc(O)c3c2cc1O)C(=O)O | Toxic |  | Active | Non-Toxic |  |
| CC(C)=CCC/C(C)=C/CC/C(=C/Cc1cc2oc(=O)c(CC/C=C(\C)CCC=C(C)C)c(C(=O)c3cc(O)ccc3O)c2cc1O)CO | Toxic |  | Active | Non-Toxic |  |
